Measured values from US7572885B2, “Isolated GAGE-7B and 8 proteins” (Ludwig Institute For Cancer Research, priority 1998, dated 2009).

How the values were obtained:
[1] = test system: GAGE 1, 2, and 8 expression in sarcoma and melanoma cell lines; experiment: Induction of GAGE gene expression by demethylation, RT-PCR with SEQ ID NOS: 4 and 5; format: cell-based; conditions: 1 uM, 72 hours in culture medium
Description: (§1) These experiments were designed to determine expression of GAGE genes in various cell and tumor types. For each type of cell assayed, total RNA was extracted, using standard guanidium-isothiocyanate procedures, as taught by e.g., Davis, et al. in Basic Methods In Molecular Biology, Elsevier Science Publishing Co., New York (1986), pp. 130-135. Reverse transcription was carried out on 2 ug samples of the total RNA, using 2 mM of Oligo(dT)15 primer, in a reaction volume of 20 ul. Portions of the resulting cDNA ( 1/20 of the product), were used in the PCR amplification. In order to amplify GAGE-1, 2, and 8, the primers used were:
(§2) For GAGE-3, 4, 5, 6; & 7B, the primers were: • 5′- GACCAAGGCG CTATGTAC-3′ • (sense, SEQ ID NO: 6) and SEQ ID NO: 5 For all amplifications, the denaturation step was 94° C. for 5 minutes, then 30 cycles of amplification (1 minute at 94° C., 2 minutes at 58° C., 2 minutes at 72° C.), then a final extension step of 72° C. for 15 minutes. The products were analyzed by agarose gel electrophoresis, with RNA integrity being checked by reverse transcription and amplification of β-actin mRNA.
(§3) In order to determine if expression of GAGE genes could be induced by demethylation, samples of cultured tumor and normal cells were incubated for 72 hours in culture medium containing 1 uM 5-aza-2′-deoxycytidine. SEQ ID NOS: 4 and 5, supra, were used in the amplification protocol.

[2] = test system: GAGE genes expression in PHA stimulated PBLs; experiment: Induction of GAGE gene expression by demethylation in PHA stimulated PBLs; format: cell-based; conditions: 1 uM, 72 hours in culture medium
Description: as §1, §2, §3

Structure (SMILES): Nc1ncn([C@H]2C[C@H](O)[C@@H](CO)O2)c(=O)n1 [5-aza-2′-deoxycytidine]
- expression of GAGE 1, 2, and 8 after demethylating treatment [1]: induced
- expression of all GAGE genes following treatment [2]: expressed
